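A five-concentration, 48-hour dose response in 96-well plates underlies each endpoint, interpolated linearly between surrounding concentrations. TGI: concentration producing complete growth inhibition.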
Experiments:
Test in all cases: NCI tumour cell line growth inhibition, 48 h
MDA-MB-231 breast = test system: MDA-MB-231 breast
NCI-H460 lung = test system: NCI-H460 lung
SK-OV-3 ovarian = test system: SK-OV-3 ovarian
MCF7 breast = test system: MCF7 breast
DU-145 prostate = test system: DU-145 prostate
M14 melanoma = test system: M14 melanoma
COLO 205 colon = test system: COLO 205 colon
NCI-H23 lung = test system: NCI-H23 lung
SNB-75 CNS = test system: SNB-75 CNS
SF-268 CNS = test system: SF-268 CNS
MDA-N = test system: MDA-N
MDA-MB-435 = test system: MDA-MB-435
HCC-2998 colon = test system: HCC-2998 colon
HOP-62 NSCLC = test system: HOP-62 NSCLC
UACC-62 melanoma = test system: UACC-62 melanoma
SK-MEL-5 melanoma = test system: SK-MEL-5 melanoma
HOP-92 NSCLC = test system: HOP-92 NSCLC
U251 CNS = test system: U251 CNS
OVCAR-4 ovarian = test system: OVCAR-4 ovarian
TK-10 renal = test system: TK-10 renal
SW-620 colon = test system: SW-620 colon
HCT-15 colon = test system: HCT-15 colon
ACHN renal = test system: ACHN renal
BT-549 breast = test system: BT-549 breast
CCRF-CEM leukemia = test system: CCRF-CEM leukemia
786-0 renal = test system: 786-0 renal
A549 NSCLC = test system: A549 NSCLC
IGROV1 ovarian = test system: IGROV1 ovarian
K-562 leukemia = test system: K-562 leukemia
OVCAR-8 ovarian = test system: OVCAR-8 ovarian
NCI/ADR-RES ovarian = test system: NCI/ADR-RES ovarian
PC-3 prostate = test system: PC-3 prostate
SN12C renal = test system: SN12C renal
HL-60(TB) leukemia = test system: HL-60(TB) leukemia
UO-31 renal = test system: UO-31 renal
KM12 colon = test system: KM12 colon
SNB-19 CNS = test system: SNB-19 CNS
CAKI-1 renal = test system: CAKI-1 renal
OVCAR-3 ovarian = test system: OVCAR-3 ovarian
UACC-257 melanoma = test system: UACC-257 melanoma
MOLT-4 leukemia = test system: MOLT-4 leukemia
HT29 colon = test system: HT29 colon
LOX IMVI melanoma = test system: LOX IMVI melanoma
SF-539 CNS = test system: SF-539 CNS
HCT-116 colon = test system: HCT-116 colon
RPMI-8226 leukemia = test system: RPMI-8226 leukemia
SK-MEL-28 melanoma = test system: SK-MEL-28 melanoma
T-47D breast = test system: T-47D breast
SK-MEL-2 melanoma = test system: SK-MEL-2 melanoma
SF-295 CNS = test system: SF-295 CNS
OVCAR-5 ovarian = test system: OVCAR-5 ovarian
HS 578T breast = test system: HS 578T breast
NCI-H226 lung = test system: NCI-H226 lung
A498 renal = test system: A498 renal
NCI-H522 lung = test system: NCI-H522 lung
EKVX NSCLC = test system: EKVX NSCLC
RXF 393 renal = test system: RXF 393 renal
MALME-3M melanoma = test system: MALME-3M melanoma

C/C=C/C=C\C1OC(O)([C@H](CC)C(=O)NC/C=C/C=C(\C)[C@H](OC)C(C)C2OC(\C=C/C=C/C=C(\C)C(=O)c3c(O)ccn(C)c3=O)[C@H](O)[C@@H]2O)C(O)C(O)C1(C)C (some centres undefined)
TGI (MDA-MB-231 breast): > 100 µM | TGI (NCI-H460 lung): > 100 µM | TGI (SK-OV-3 ovarian): > 100 µM | TGI (MCF7 breast): > 100 µM | TGI (DU-145 prostate): > 100 µM | TGI (M14 melanoma): > 100 µM | TGI (COLO 205 colon): > 100 µM | TGI (NCI-H23 lung): > 100 µM | TGI (SNB-75 CNS): > 100 µM | TGI (SF-268 CNS): > 100 µM | TGI (MDA-N): > 100 µM | TGI (MDA-MB-435): > 100 µM | TGI (HCC-2998 colon): > 100 µM | TGI (HOP-62 NSCLC): > 100 µM | TGI (UACC-62 melanoma): > 100 µM | TGI (SK-MEL-5 melanoma): > 100 µM | TGI (HOP-92 NSCLC): > 100 µM | TGI (U251 CNS): > 100 µM | TGI (OVCAR-4 ovarian): > 100 µM | TGI (TK-10 renal): > 100 µM | TGI (SW-620 colon): > 100 µM | TGI (HCT-15 colon): > 100 µM | TGI (ACHN renal): > 100 µM | TGI (BT-549 breast): > 100 µM | TGI (CCRF-CEM leukemia): > 100 µM | TGI (786-0 renal): > 100 µM | TGI (A549 NSCLC): > 100 µM | TGI (IGROV1 ovarian): > 100 µM | TGI (K-562 leukemia): > 100 µM | TGI (OVCAR-8 ovarian): > 100 µM | TGI (NCI/ADR-RES ovarian): > 100 µM | TGI (PC-3 prostate): > 100 µM | TGI (SN12C renal): > 100 µM | TGI (HL-60(TB) leukemia): > 100 µM | TGI (UO-31 renal): > 100 µM | TGI (KM12 colon): > 100 µM | TGI (SNB-19 CNS): > 100 µM | TGI (CAKI-1 renal): > 100 µM | TGI (OVCAR-3 ovarian): > 100 µM | TGI (UACC-257 melanoma): > 100 µM | TGI (MOLT-4 leukemia): > 100 µM | TGI (HT29 colon): > 100 µM | TGI (LOX IMVI melanoma): > 100 µM | TGI (SF-539 CNS): > 100 µM | TGI (HCT-116 colon): > 100 µM | TGI (RPMI-8226 leukemia): > 100 µM | TGI (SK-MEL-28 melanoma): > 100 µM | TGI (T-47D breast): > 100 µM | TGI (SK-MEL-2 melanoma): > 100 µM | TGI (SF-295 CNS): > 100 µM | TGI (OVCAR-5 ovarian): > 100 µM | TGI (HS 578T breast): > 100 µM | TGI (NCI-H226 lung): > 100 µM | TGI (A498 renal): > 100 µM | TGI (NCI-H522 lung): > 100 µM | TGI (EKVX NSCLC): > 100 µM | TGI (RXF 393 renal): > 100 µM

COC(=O)c1c(O)ccc2c1c1c(n2-c2ccc(OC)cc2)C(=O)c2ccccc2C1=O
TGI (MDA-MB-231 breast): 32.7 µM | TGI (NCI-H460 lung): 61.7 µM | TGI (SK-OV-3 ovarian): 39.2 µM | TGI (MCF7 breast): 72.4 µM | TGI (DU-145 prostate): 48.3 µM | TGI (M14 melanoma): > 100 µM | TGI (COLO 205 colon): 3.52 µM | TGI (NCI-H23 lung): > 100 µM | TGI (SNB-75 CNS): 51.5 µM | TGI (SF-268 CNS): 32.4 µM | TGI (MDA-N): > 100 µM | TGI (MDA-MB-435): > 100 µM | TGI (HCC-2998 colon): 11.3 µM | TGI (HOP-62 NSCLC): 34.5 µM | TGI (SK-MEL-5 melanoma): > 100 µM | TGI (HOP-92 NSCLC): 36.7 µM | TGI (U251 CNS): 28.4 µM | TGI (OVCAR-4 ovarian): 38.2 µM | TGI (TK-10 renal): 39.5 µM | TGI (SW-620 colon): > 100 µM | TGI (HCT-15 colon): > 100 µM | TGI (ACHN renal): 25.6 µM | TGI (BT-549 breast): 84.9 µM | TGI (CCRF-CEM leukemia): > 100 µM | TGI (786-0 renal): 29.1 µM | TGI (A549 NSCLC): 32.2 µM | TGI (IGROV1 ovarian): 91.6 µM | TGI (K-562 leukemia): > 100 µM | TGI (OVCAR-8 ovarian): 33.7 µM | TGI (NCI/ADR-RES ovarian): 48 µM | TGI (PC-3 prostate): 74.1 µM | TGI (SN12C renal): > 100 µM | TGI (HL-60(TB) leukemia): > 100 µM | TGI (UO-31 renal): 31.1 µM | TGI (KM12 colon): 77.8 µM | TGI (SNB-19 CNS): 44.7 µM | TGI (CAKI-1 renal): 66 µM | TGI (OVCAR-3 ovarian): 65.2 µM | TGI (UACC-257 melanoma): > 100 µM | TGI (MOLT-4 leukemia): > 100 µM | TGI (HT29 colon): 15.2 µM | TGI (LOX IMVI melanoma): > 100 µM | TGI (SF-539 CNS): 29.9 µM | TGI (HCT-116 colon): 30.6 µM | TGI (RPMI-8226 leukemia): > 100 µM | TGI (SK-MEL-28 melanoma): > 100 µM | TGI (T-47D breast): 66.2 µM | TGI (SK-MEL-2 melanoma): > 100 µM | TGI (SF-295 CNS): 44.1 µM | TGI (OVCAR-5 ovarian): 75.4 µM | TGI (HS 578T breast): 46.4 µM | TGI (MALME-3M melanoma): 58.4 µM | TGI (NCI-H226 lung): 73.3 µM | TGI (A498 renal): > 100 µM | TGI (NCI-H522 lung): 56.3 µM | TGI (EKVX NSCLC): 39.6 µM | TGI (RXF 393 renal): 25.7 µM

From PubChem BioAssay (NCI)
